ChEMBL document CHEMBL1122784, “Antitumor imidazotetrazines. 1. Synthesis and chemistry of 8-carbamoyl-3-(2-chloroethyl)imidazo[5,1-d]-1,2,3,5-tetrazin-4(3 H)-one , a novel broad-spectrum antitumor agent” (J Med Chem, 1984)

Tests used:
Mus musculus [1] = test: Compound was tested for mortality in L1210 leukemia implanted BDF1 mice on day 0 after ip administration of 7.5 mg/kg/day on day 1-5 out of 5 mice; format: functional; details: route intraperitoneal
Mus musculus [2] = test: Compound was evaluated for %T/C in L1210 leukemia implanted BDF1 mice on day 0 after ip administration of 10 mg/kg/day on day 1-5; format: functional; details: route intraperitoneal
Mus musculus [3] = test: Compound was tested for mortality in P388 leukemia implanted BDF1 mice on day 0 after ip administration of 12.5 mg/kg/day on day 1-5 out of 6 mice; format: functional; details: route intraperitoneal
Mus musculus [4] = test: Compound was tested for mortality in P388 leukemia implanted BDF1 mice on day 0 after ip administration of 7.5 mg/kg/day on day 1-5 out of 5 mice; format: functional; details: route intraperitoneal
Mus musculus [5] = test: Compound was evaluated for %T/C in P388 leukemia implanted BDF1 mice on day 0 after ip administration of 80 mg/kg/day on day 1; format: functional; details: route intraperitoneal
Mus musculus [6] = test: Compound was evaluated for %T/C in L1210 leukemia implanted BDF1 mice on day 0 after ip administration of 12.5 mg/kg/day on day 1-9; format: functional; details: route intraperitoneal
Mus musculus [7] = test: Compound was evaluated for %T/C in L1210 leukemia implanted BDF1 mice on day 0 after ip administration of 80 mg/kg/day on day 1; format: functional; details: route intraperitoneal
Mus musculus [8] = test: Compound was evaluated for number of survivors in P388 leukemia implanted BDF1 mice on day 0 after ip administration of 2.5 mg/kg/day on day 60 out of 5 mice; format: functional; details: route intraperitoneal
Mus musculus [9] = test: Compound was tested for mortality in P388 leukemia implanted BDF1 mice on day 0 after ip administration of 50 mg/kg/day on day 1-5 out of 6 mice; format: functional; details: route intraperitoneal
Mus musculus [10] = test: Compound was evaluated for number of survivors in L1210 leukemia implanted BDF1 mice on day 0 after ip administration of 6.25 mg/kg/day on day 60 out of 6 mice; format: functional; details: route intraperitoneal
Mus musculus [11] = test: Compound was evaluated for %T/C in P388 leukemia implanted BDF1 mice on day 0 after ip administration of 2.5 mg/kg/day on day 1-5; format: functional; details: route intraperitoneal
Mus musculus [12] = test: Compound was tested for mortality in P388 leukemia implanted BDF1 mice on day 0 after ip administration of 80 mg/kg/day on day 1 out of 5 mice; format: functional; details: route intraperitoneal
Mus musculus [13] = test: Compound was evaluated for %T/C in L1210 leukemia implanted BDF1 mice on day 0 after ip administration of 2.5 mg/kg/day on day 1-5; format: functional; details: route intraperitoneal
Mus musculus [14] = test: Compound was tested for mortality in L1210 leukemia implanted BDF1 mice on day 0 after ip administration of 3.12 mg/kg/day on day 1-9 out of 6 mice; format: functional; details: route intraperitoneal
Mus musculus [15] = test: Compound was evaluated for number of survivors in P388 leukemia implanted BDF1 mice on day 0 after ip administration of 50 mg/kg/day on day 60 out of 5 mice; format: functional; details: route intraperitoneal
Mus musculus [16] = test: Compound was tested for mortality in L1210 leukemia implanted BDF1 mice on day 0 after ip administration of 25 mg/kg/day on day 1-9 out of 6 mice; format: functional; details: route intraperitoneal
Mus musculus [17] = test: Compound was evaluated for %T/C in L1210 leukemia implanted BDF1 mice on day 0 after ip administration of 25 mg/kg/day on day 1-9; format: functional; details: route intraperitoneal
Mus musculus [18] = test: Compound was evaluated for %T/C in P388 leukemia implanted BDF1 mice on day 0 after ip administration of 5 mg/kg/day on day 1-5; format: functional; details: route intraperitoneal
Mus musculus [19] = test: Compound was tested for mortality in P388 leukemia implanted BDF1 mice on day 0 after ip administration of 5 mg/kg/day on day 1-5 out of 5 mice; format: functional; details: route intraperitoneal
Mus musculus [20] = test: Compound was tested for mortality in P388 leukemia implanted BDF1 mice on day 0 after ip administration of 10 mg/kg/day on day 1 out of 5 mice; format: functional; details: route intraperitoneal
Mus musculus [21] = test: Compound was tested for mortality in P388 leukemia implanted BDF1 mice on day 0 after ip administration of 20 mg/kg/day on day 1-5 out of 5 mice; format: functional; details: route intraperitoneal
Mus musculus [22] = test: Compound was evaluated for number of survivors in L1210 leukemia implanted BDF1 mice on day 0 after ip administration of 7.5 mg/kg/day on day 60 out of 5 mice; format: functional; details: route intraperitoneal
Mus musculus [23] = test: Compound was evaluated for %T/C in L1210 leukemia implanted BDF1 mice on day 0 after ip administration of 50 mg/kg/day on day 1-9; format: functional; details: route intraperitoneal
Mus musculus [24] = test: Compound was evaluated for number of survivors in P388 leukemia implanted BDF1 mice on day 0 after ip administration of 12.5 mg/kg/day on day 60 out of 6 mice; format: functional; details: route intraperitoneal
Mus musculus [25] = test: Compound was evaluated for number of survivors in L1210 leukemia implanted BDF1 mice on day 0 after ip administration of 3.12 mg/kg/day on day 60 out of 6 mice; format: functional; details: route intraperitoneal
Mus musculus [26] = test: Compound was tested for mortality in P388 leukemia implanted BDF1 mice on day 0 after ip administration of 2.5 mg/kg/day on day 1-5 out of 5 mice; format: functional; details: route intraperitoneal
[27] = Half-life period in phosphate buffer at pH 7.4 in the dark at 28 degrees celsius.; format: ADME
Mus musculus [28] = test: Compound was tested for mortality in L1210 leukemia implanted BDF1 mice on day 0 after ip administration of 12.5 mg/kg/day on day 1-9 out of 6 mice; format: functional; details: route intraperitoneal
Mus musculus [29] = test: Compound was evaluated for %T/C in P388 leukemia implanted BDF1 mice on day 0 after ip administration of 20 mg/kg/day on day 1-5; format: functional; details: route intraperitoneal
Mus musculus [30] = test: Compound was evaluated for number of survivors in L1210 leukemia implanted BDF1 mice on day 0 after ip administration of 20 mg/kg/day on day 60 out of 5 mice; format: functional; details: route intraperitoneal
Mus musculus [31] = test: Compound was evaluated for number of survivors in P388 leukemia implanted BDF1 mice on day 0 after ip administration of 20 mg/kg/day on day 60 out of 5 mice; format: functional; details: route intraperitoneal
Mus musculus [32] = test: Compound was tested for mortality in P388 leukemia implanted BDF1 mice on day 0 after ip administration of 20 mg/kg/day on day 1 out of 5 mice; format: functional; details: route intraperitoneal
Mus musculus [33] = test: Compound was tested for mortality in P388 leukemia implanted BDF1 mice on day 0 after ip administration of 25 mg/kg/day on day 1-5 out of 6 mice; format: functional; details: route intraperitoneal
Mus musculus [34] = test: Compound was evaluated for number of survivors in P388 leukemia implanted BDF1 mice on day 0 after ip administration of 40 mg/kg/day on day 60 out of 5 mice; format: functional; details: route intraperitoneal
Mus musculus [35] = test: Compound was tested for mortality in L1210 leukemia implanted BDF1 mice on day 0 after ip administration of 20 mg/kg/day on days 1-5 out of 5 mice; format: functional; details: route intraperitoneal
Mus musculus [36] = test: Compound was evaluated for %T/C in P388 leukemia implanted BDF1 mice on day 0 after ip administration of 10 mg/kg/day on day 1-5; format: functional; details: route intraperitoneal
Mus musculus [37] = test: Compound was tested for mortality in L1210 leukemia implanted BDF1 mice on day 0 after ip administration of 40 mg/kg/day on day 1 out of 5 mice; format: functional; details: route intraperitoneal
Mus musculus [38] = test: Compound was evaluated for %T/C in P388 leukemia implanted BDF1 mice on day 0 after ip administration of 12.5 mg/kg/day on day 1-5; format: functional; details: route intraperitoneal

In the case of `NC(=O)c1ncn2c(=O)n(CCCl)nnc12` [MITOZOLOMIDE], the Mortality (Mus musculus [1]) was 0, the T/C (Mus musculus [2]) was >577% and the Mortality (Mus musculus [3]) was 0. The Mortality (Mus musculus [4]) was 0, the T/C (Mus musculus [5]) was 74% and the T/C (Mus musculus [6]) was >745%. It also gave a T/C (Mus musculus [7]) of 177%, a Survivors (Mus musculus [8]) of 0 and a Mortality (Mus musculus [9]) of 0. For the same compound, the Survivors (Mus musculus [10]) was 0, the T/C (Mus musculus [11]) was 148% and the Mortality (Mus musculus [12]) was 0. For the same compound, the T/C (Mus musculus [13]) was 112%, the Mortality (Mus musculus [14]) was 0 and the Survivors (Mus musculus [15]) was 0. The Mortality (Mus musculus [16]) was 0, the T/C (Mus musculus [17]) was >745% and the T/C (Mus musculus [18]) was 277%. The Mortality (Mus musculus [19]) was 0, the Mortality (Mus musculus [20]) was 0 and the Mortality (Mus musculus [21]) was 0. It also gave a Survivors (Mus musculus [22]) of 0, a T/C (Mus musculus [23]) of 137% and a Survivors (Mus musculus [24]) of 1. It also gave a Survivors (Mus musculus [25]) of 0, a Mortality (Mus musculus [26]) of 0 and a half-life [27] of 1.63 h. For the same compound, the Mortality (Mus musculus [28]) was 0, the T/C (Mus musculus [29]) was >555% and the Survivors (Mus musculus [30]) was 1. It also gave a Survivors (Mus musculus [31]) of 5, a Mortality (Mus musculus [32]) of 0 and a Mortality (Mus musculus [33]) of 0. The Survivors (Mus musculus [34]) was 5, the Mortality (Mus musculus [35]) was 0 and the T/C (Mus musculus [36]) was >555%. For the same compound, the Mortality (Mus musculus [37]) was 0 and the T/C (Mus musculus [38]) was 275%.
